Results: patent publication US20130274247A1 (priority 2012, published 2013)
Read-outs that look alike come from different tables or passages of the source.

Legend:
CKD cats = assay: Effect of mirtazapine on weight, appetite, activity and vomiting in CKD cats; format: in vivo, cat; settings: 1.88 mg every other day for three weeks
Description: FIG. 1. […] FIG. 2. […] FIG. 3. […] FIG. 4.

in vivo = assay: in vivo; set-up: species or system cat; settings: for AUC(0-inf) / CL/F / Cmax / Tmax / Vd/F: both sexes
Description: In this prospective pharmacokinetic study, 6 client-owned stable CKD cats, 2 each from International Renal Interest Society (IRIS) stages II, III and IV, […] and 6 age-matched (within 6 months) healthy geriatric control cats (AMC) were enrolled by stratified convenience sampling. There were 4 spayed females and 2 neutered males in the CKD group and 3 spayed females and 3 neutered males in the AMC group. […] Diagnostic tests required before enrollment included a minimum database consisting of serum biochemistry profile, CBC, urinalysis, urine culture, blood pressure, and serum total thyroxine concentration. […] Exclusion criteria included other systemic illnesses, complications of CKD such as hypertension, pyelonephritis or ureteral obstruction, or decompensation of CKD requiring hospitalization and IV fluid therapy. The project was approved by the Institutional Animal Care and Use Committee at Colorado State University, and all owners gave written informed consent before participation. […] Samples were centrifuged within 10 minutes of collection and serum was harvested and stored at —80° C. until analysis. […] Pharmacokinetic analysis was performed using a non-compartmental method. Area under the curve to infinity (AUC∞), disappearance half-life (t½^λ), time to maximum serum concentration (Tmax), and maximum serum concentration (Cmax) were calculated. […] The terminal elimination rate was used for estimating the accumulation factor as the applicable kel, and the dosing interval (T) was set at 24 or 48 hours. Comparison of pharmacokinetic parameters between the CKD and AMC cat groups was performed using a Mann-Whitney U-test. Prism software© was used for all analyses.

cats = settings: cited from earlier work
[1] = cited from earlier work
young normal cats = settings: cited from earlier work
[2] = humans; cited from earlier work
[3] = Stability of compounded 1.88 mg mirtazapine capsules (LC/MS/MS); format: physicochemical; settings: compounded 1.88 mg capsules
Description: The method used is guaranteed to produce accurate compounding to within 10% of the target dose.

difference in AUC∞ between AMC cats and CKD cats (in vivo): statistically significant difference
AUC(0-inf) (in vivo; po, 1.88 mg, Mean ± SD): 590 ± 185 ng·h/mL
AUC(0-inf) (in vivo; po, 1.88 mg, Median): 561 ng·h/mL
CL/F (in vivo; po, 1.88 mg, Mean ± SD): 13.2 mL/min/kg
CL/F (in vivo; po, 1.88 mg, Median): 12.2 mL/min/kg
Cmax (in vivo; po, 1.88 mg, Mean ± SD): 79.6 ± 21.7 ng/mL
Cmax (in vivo; po, 1.88 mg, Median): 83.6 ng/mL
Tmax (in vivo; po, 1.88 mg, Mean ± SD): 2 ± 1.5 h
Tmax (in vivo; po, 1.88 mg, Median): 1 h
Vd/F (in vivo; po, 1.88 mg, Mean ± SD): 13.9 ± 3.2 L
Vd/F (in vivo; po, 1.88 mg, Median): 14.4 L
CL/F, Mean ± SD (in vivo; both, po, 1.88 mg): 10.2 mL/min/kg
CL/F, Median (in vivo; both, po, 1.88 mg): 10 mL/min/kg
Cmax, Mean ± SD (in vivo; both, po, 1.88 mg): 110.6 ± 30.8 ng/mL
Cmax, Median (in vivo; both, po, 1.88 mg): 109.5 ng/mL
AUC∞, Mean ± SD (in vivo; po, 1.88 mg): 866.5 ± 257.9 ng·h/mL
AUC∞, Median (in vivo; po, 1.88 mg): 828.4 ng·h/mL
Vd/F, Mean ± SD (in vivo; po, 1.88 mg): 13.6 ± 2.0 L
Vd/F, Median (in vivo; po, 1.88 mg): 13.4 L
stability as formulated [3]: at least 6 months
SMILES: CN1CCN2c3ncccc3Cc3ccccc3C2C1 (stereo not shown) [mirtazapine]
Effect on weight (CKD cats; p=0.002): statistically significant increase
Effect on activity (CKD cats; p=0.02): statistically significant increase
Effect on appetite score (CKD cats; p=0.02): statistically significant increase
Effect on vomiting (CKD cats; p=0.047): statistically significant decrease
other reported adverse effects (hyperexcitability, muscle tremors) (cats): mild and dose dependent
mean AUC ([1]; normal cats, previously reported): 397 ng/mL/h
mean CL/F ([1]; young healthy cats): 18.3 mL/min/kg
food consumption as compared to placebo (young normal cats; 1.88 mg/cat): increased food consumption
food consumption as compared to placebo (young normal cats; 3.75 mg/cat): increased food consumption
appetite stimulation (young normal cats; dose of 1.88 mg): significantly stimulates appetite
AUC in young men compared to women [2]: lower
